Laboratory results reported in ChEMBL document CHEMBL5154670, “Discovery of selective irreversible inhibitors of B-Lymphoid tyrosine kinase (BLK)” (Eur J Med Chem, 2022).
Each block holds one compound with its values, some of them ahead of it. Activity calls are given as the source filed them. The calls are words filed in the database; no cut-off is given here.

What was measured:
[1] = target: T1, Tyrosine-protein kinase BTK (Homo sapiens, UniProt Q06187); assay: Inhibition of wild type N-terminal GST tagged BTK (unknown origin) (2 to 659 residues) expressed in sf21 insect cell using TK as substrate incubated for 50 mins in presence of ATP by HTRF assay
T1 sequence (Q06187 whole entry, the tested form may be a part): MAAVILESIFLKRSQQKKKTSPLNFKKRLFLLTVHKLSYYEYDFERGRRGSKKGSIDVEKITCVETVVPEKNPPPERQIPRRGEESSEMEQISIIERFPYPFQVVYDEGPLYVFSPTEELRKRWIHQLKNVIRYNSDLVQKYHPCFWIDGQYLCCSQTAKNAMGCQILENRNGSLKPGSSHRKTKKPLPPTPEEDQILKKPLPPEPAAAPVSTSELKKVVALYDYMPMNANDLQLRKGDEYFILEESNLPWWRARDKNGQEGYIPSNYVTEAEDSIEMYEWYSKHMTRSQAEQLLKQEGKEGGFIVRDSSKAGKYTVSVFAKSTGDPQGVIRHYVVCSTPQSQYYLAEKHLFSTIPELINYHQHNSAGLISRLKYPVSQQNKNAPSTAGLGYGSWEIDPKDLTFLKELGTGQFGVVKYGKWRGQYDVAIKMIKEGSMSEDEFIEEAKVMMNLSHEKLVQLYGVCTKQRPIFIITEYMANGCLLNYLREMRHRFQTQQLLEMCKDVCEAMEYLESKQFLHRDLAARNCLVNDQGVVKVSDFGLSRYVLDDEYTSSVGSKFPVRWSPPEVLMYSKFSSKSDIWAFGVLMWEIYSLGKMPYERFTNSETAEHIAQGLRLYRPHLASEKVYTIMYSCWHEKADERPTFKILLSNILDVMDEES

[2] = target: T1, Tyrosine-protein kinase BTK; assay: (§1) Inhibition of (S)-3-(3-(5-acrylamido-6-(3-(5-(2-methyl-5-(3-(trifluoromethyl)benzamido)benzamido)pyrimidin-2-ylamino)phenylamino)-6-oxohexylamino)-3-oxopropyl)-5,5-difluoro-7,9-dimethyl-5H-dipyrrolo[1,2-c:1',2'-f][1,3,2]diazaborinin-4-ium-5-uide binding to BTK in human NAMALVA cells preincubated for 1 hr followed by compound washout for three times and treated with probe for 1 hr by competitive labeling assay; format: cell-based
[3] = target: T1, Tyrosine-protein kinase BTK; assay: Time dependent inhibition of wild type N-terminal GST tagged BTK (unknown origin) (2 to 659 residues) expressed in sf21 insect cell using TK as substrate in presence of ATP by HTRF assay; conditions: time 50.0 min, TDE = time-dependent effect
Homo sapiens = organism: Homo sapiens; assay: Selectivity ratio, ratio of IC50 for inhibition of BTK (unknown origin) to IC50 for inhibition of BLK (unknown origin)
[4] = target: T2, Tyrosine-protein kinase Blk (Homo sapiens, UniProt P51451); assay: Irreversible inhibition of wild type N-terminal GST tagged BLK (unknown origin) (1 to 505 residues) expressed in sf21 insect cell at 3 uM incubated for 4 hrs and measured after 48 hrs dialysis
Target sequence in this assay (P51451 2-505 limits assumed): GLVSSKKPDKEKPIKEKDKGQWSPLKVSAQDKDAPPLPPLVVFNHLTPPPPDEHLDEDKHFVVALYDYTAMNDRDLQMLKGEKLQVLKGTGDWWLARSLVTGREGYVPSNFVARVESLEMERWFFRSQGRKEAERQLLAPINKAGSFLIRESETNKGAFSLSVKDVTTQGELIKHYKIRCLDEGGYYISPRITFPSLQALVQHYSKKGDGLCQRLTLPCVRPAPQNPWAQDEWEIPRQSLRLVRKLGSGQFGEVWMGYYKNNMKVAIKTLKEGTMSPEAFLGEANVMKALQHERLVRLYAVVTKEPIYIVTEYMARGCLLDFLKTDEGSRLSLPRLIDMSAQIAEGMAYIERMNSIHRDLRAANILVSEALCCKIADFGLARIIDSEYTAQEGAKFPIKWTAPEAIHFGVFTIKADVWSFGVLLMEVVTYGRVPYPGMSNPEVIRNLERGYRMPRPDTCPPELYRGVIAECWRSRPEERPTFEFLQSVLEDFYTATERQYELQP

[5] = target: T2, Tyrosine-protein kinase Blk; assay: Inhibition of wild type N-terminal GST tagged BLK (unknown origin) (1 to 505 residues) expressed in sf21 insect cell using TK as substrate incubated for 50 mins in presence of ATP by HTRF assay
Target sequence in this assay (P51451 whole entry, the tested form may be a part): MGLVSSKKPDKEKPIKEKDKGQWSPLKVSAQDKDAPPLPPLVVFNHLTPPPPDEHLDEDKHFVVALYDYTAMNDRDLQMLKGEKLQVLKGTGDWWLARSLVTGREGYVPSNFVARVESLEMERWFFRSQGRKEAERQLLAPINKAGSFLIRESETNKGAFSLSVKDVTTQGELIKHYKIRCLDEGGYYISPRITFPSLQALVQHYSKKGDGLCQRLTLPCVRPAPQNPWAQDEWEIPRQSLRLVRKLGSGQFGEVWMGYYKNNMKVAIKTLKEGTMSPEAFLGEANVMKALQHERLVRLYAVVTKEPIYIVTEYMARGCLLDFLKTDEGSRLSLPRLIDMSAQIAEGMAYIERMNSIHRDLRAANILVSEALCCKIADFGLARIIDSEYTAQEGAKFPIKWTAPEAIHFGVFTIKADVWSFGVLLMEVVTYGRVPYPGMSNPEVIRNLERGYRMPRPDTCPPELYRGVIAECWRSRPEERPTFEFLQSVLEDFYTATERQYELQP

[6] = target: T2, Tyrosine-protein kinase Blk; assay: as §1, with “BLK” for “BTK”; format: cell-based
Target sequence in this assay (P51451 whole entry, the tested form may be a part): as above

[7] = target: T1, Tyrosine-protein kinase BTK; assay: Inhibition of BTK in goat anti-human IgM antibody stimulated human Ramos cells assessed as BTK autophosphorylation at […] residue preincubated for 1 hr followed by antibody stimulation by Western blot analysis; format: cell-based
[8] = target: T1, Tyrosine-protein kinase BTK; assay: Inhibition of BTK in goat anti-human IgM antibody stimulated human Ramos cells assessed as PLCgamma2 phosphorylation preincubated for 1 hr followed by antibody stimulation by Western blot analysis; format: cell-based
[9] = target: T2, Tyrosine-protein kinase Blk; assay: Inhibition of BLK in goat anti-human IgM antibody stimulated human Ramos cells assessed as BLK autophosphorylation at Tyr 389 residue at 0.3 uM preincubated for 1 hr followed by compound washout for 2 hrs and antibody stimulation by Western blot analysis; format: cell-based
Target sequence in this assay (P51451 2-505 limits assumed): as the sequence (P51451 2-505 limits assumed) above

[10] = target: T2, Tyrosine-protein kinase Blk; assay: Inhibition of BLK (unknown origin) at 0.3 uM relative to control
Target sequence in this assay (P51451 2-505 limits assumed): as above

SU-DHL-6 [11] = assay: Antiproliferative activity against human SU-DHL-6 cells assessed as cell growth inhibition incubated for 72 hrs by celltiter-glo luminescent cell viability assay; format: functional
[12] = target: T1, Tyrosine-protein kinase BTK; assay: Inhibition of BTK (unknown origin) at 0.3 uM relative to control
[13] = target: Cytoplasmic tyrosine-protein kinase BMX (Homo sapiens) (UniProt P51813); assay: Inhibition of BMX (unknown origin) at 0.3 uM relative to control
[14] = target: Epidermal growth factor receptor (Homo sapiens) (UniProt P00533); assay: Inhibition of EGFR (unknown origin) at 0.3 uM relative to control
[15] = target: Receptor tyrosine-protein kinase erbB-4 (Homo sapiens) (UniProt Q15303); assay: Inhibition of HER4 (unknown origin) at 0.3 uM relative to control
Sequence of Receptor tyrosine-protein kinase erbB-4 (Homo sapiens) (Q15303 whole entry): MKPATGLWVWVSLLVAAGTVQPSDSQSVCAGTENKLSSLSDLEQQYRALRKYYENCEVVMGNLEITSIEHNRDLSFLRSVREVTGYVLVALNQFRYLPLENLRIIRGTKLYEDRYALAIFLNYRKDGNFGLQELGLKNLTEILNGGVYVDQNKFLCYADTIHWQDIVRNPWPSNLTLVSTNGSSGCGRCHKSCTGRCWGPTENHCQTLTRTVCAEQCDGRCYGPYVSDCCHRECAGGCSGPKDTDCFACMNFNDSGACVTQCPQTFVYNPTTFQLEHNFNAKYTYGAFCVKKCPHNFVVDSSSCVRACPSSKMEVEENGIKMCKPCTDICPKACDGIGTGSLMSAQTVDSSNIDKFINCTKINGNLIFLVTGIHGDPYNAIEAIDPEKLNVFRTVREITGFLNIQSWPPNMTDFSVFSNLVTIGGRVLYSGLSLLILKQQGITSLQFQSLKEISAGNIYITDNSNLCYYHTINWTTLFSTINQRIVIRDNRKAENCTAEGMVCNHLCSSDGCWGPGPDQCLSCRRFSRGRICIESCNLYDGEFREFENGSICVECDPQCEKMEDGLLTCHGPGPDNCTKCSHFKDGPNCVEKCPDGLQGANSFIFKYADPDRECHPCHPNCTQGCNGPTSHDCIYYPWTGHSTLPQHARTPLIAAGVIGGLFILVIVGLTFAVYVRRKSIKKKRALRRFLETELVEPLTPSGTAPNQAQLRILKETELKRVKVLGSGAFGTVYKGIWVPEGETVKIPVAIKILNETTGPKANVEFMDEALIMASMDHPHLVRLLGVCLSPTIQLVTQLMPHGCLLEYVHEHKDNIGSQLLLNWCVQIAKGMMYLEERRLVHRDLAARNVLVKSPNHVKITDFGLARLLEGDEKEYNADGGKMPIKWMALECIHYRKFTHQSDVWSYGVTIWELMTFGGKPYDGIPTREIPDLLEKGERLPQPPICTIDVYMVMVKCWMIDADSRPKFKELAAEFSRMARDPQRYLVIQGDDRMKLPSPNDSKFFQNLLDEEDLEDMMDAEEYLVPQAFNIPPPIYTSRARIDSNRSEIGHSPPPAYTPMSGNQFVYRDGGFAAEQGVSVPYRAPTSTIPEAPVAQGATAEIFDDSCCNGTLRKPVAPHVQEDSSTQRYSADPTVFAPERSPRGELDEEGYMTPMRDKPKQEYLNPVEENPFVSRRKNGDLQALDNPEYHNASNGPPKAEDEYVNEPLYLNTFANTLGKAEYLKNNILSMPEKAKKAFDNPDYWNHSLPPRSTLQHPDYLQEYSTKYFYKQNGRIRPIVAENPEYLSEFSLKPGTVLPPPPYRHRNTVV

[16] = target: Tyrosine-protein kinase TXK (Homo sapiens) (UniProt P42681); assay: Inhibition of TXK (unknown origin) at 0.3 uM relative to control
Sequence of Tyrosine-protein kinase TXK (Homo sapiens) (P42681 whole entry): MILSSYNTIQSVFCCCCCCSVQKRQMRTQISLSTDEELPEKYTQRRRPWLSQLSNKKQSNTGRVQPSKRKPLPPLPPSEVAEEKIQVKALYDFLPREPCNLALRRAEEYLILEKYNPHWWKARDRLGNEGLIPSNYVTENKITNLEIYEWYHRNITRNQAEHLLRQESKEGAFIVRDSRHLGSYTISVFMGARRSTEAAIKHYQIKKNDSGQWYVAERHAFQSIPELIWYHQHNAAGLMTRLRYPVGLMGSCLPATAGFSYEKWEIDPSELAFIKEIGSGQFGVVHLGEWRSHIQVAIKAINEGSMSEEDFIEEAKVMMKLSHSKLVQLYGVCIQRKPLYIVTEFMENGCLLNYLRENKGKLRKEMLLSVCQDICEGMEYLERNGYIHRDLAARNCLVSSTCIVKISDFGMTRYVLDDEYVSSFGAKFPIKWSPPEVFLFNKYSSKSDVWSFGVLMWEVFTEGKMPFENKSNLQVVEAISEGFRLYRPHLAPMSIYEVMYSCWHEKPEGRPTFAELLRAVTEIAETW

[17] = target: Receptor tyrosine-protein kinase erbB-2 (Homo sapiens) (UniProt P04626); assay: Inhibition of HER2 (unknown origin) at 0.3 uM relative to control
Sequence of Receptor tyrosine-protein kinase erbB-2 (Homo sapiens) (P04626 whole entry): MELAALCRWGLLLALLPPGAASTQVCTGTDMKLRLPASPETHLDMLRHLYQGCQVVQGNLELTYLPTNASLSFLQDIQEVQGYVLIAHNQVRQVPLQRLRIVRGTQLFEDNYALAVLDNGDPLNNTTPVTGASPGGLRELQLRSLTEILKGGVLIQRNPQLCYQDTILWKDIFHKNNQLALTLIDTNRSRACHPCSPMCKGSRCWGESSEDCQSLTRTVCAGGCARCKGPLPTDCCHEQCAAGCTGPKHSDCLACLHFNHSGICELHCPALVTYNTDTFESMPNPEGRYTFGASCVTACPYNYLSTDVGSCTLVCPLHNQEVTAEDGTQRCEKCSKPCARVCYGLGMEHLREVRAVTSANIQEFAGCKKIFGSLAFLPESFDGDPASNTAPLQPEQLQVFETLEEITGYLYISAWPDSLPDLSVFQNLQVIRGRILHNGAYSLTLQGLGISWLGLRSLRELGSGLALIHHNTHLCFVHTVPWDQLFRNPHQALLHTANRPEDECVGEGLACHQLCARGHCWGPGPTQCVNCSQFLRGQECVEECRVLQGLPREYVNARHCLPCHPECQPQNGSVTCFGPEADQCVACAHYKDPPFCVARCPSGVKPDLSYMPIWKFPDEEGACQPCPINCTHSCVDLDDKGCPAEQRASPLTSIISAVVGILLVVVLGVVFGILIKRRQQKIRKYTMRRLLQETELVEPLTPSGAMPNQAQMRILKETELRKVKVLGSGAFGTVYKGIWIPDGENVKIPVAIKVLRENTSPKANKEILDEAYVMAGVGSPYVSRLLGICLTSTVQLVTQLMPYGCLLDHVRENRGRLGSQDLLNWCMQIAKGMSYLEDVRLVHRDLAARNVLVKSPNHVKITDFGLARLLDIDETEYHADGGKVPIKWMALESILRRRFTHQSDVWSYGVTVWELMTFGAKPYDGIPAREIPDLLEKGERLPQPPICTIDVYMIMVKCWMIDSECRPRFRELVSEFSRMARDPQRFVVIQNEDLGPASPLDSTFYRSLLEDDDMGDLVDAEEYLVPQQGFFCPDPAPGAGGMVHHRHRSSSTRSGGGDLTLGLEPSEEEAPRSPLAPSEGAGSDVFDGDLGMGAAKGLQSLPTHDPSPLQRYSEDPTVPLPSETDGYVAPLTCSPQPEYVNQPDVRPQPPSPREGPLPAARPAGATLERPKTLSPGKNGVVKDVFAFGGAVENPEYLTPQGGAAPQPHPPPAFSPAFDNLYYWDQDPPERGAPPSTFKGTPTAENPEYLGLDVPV

[18] = target: Tyrosine-protein kinase Tec (Homo sapiens) (UniProt P42680); assay: Inhibition of TEC (unknown origin) at 0.3 uM relative to control
[19] = target: Tyrosine-protein kinase ITK/TSK (Homo sapiens) (UniProt Q08881); assay: Inhibition of ITK (unknown origin) at 0.3 uM relative to control
DOHH-2 [20] = assay: Antiproliferative activity against human DOHH-2 cells assessed as cell growth inhibition incubated for 72 hrs by celltiter-glo luminescent cell viability assay; format: functional
OCI-Ly7 = assay: Antiproliferative activity against human OCILY7 cells assessed as cell growth inhibition incubated for 72 hrs by celltiter-glo luminescent cell viability assay; format: functional
SU-DHL10 = assay: Antiproliferative activity against human SU-DHL-10 cells assessed as cell growth inhibition incubated for 72 hrs by celltiter-glo luminescent cell viability assay; format: functional
Pfeiffer = assay: Antiproliferative activity against human Pfeiffer cells assessed as cell growth inhibition incubated for 72 hrs by celltiter-glo luminescent cell viability assay; format: functional
TMD8 = assay: Antiproliferative activity against human TMD8 cells assessed as cell growth inhibition incubated for 72 hrs by celltiter-glo luminescent cell viability assay; format: functional
[21] = Antiproliferative activity against human HBL1 cells assessed as cell growth inhibition incubated for 72 hrs by celltiter-glo luminescent cell viability assay; format: functional
Jurkat = assay: Antiproliferative activity against human Jurkat cells assessed as cell growth inhibition incubated for 72 hrs by celltiter-glo luminescent cell viability assay; format: functional
MOLT-4 = assay: Antiproliferative activity against human MOLT-4 cells assessed as cell growth inhibition incubated for 72 hrs by celltiter-glo luminescent cell viability assay; format: functional
A-375 = assay: Antiproliferative activity against human A-375 cells assessed as cell growth inhibition incubated for 72 hrs by celltiter-glo luminescent cell viability assay; format: functional
A-431 = assay: Antiproliferative activity against human A-431 cells assessed as cell growth inhibition incubated for 72 hrs by celltiter-glo luminescent cell viability assay; format: functional
A549 = assay: Antiproliferative activity against human A549 cells assessed as cell growth inhibition incubated for 72 hrs by celltiter-glo luminescent cell viability assay; format: functional
HCT-116 = assay: Antiproliferative activity against human HCT-116 cells assessed as cell growth inhibition incubated for 72 hrs by celltiter-glo luminescent cell viability assay; format: functional
MDA-MB-453 = assay: Antiproliferative activity against human MDA-MB-453 cells assessed as cell growth inhibition incubated for 72 hrs by celltiter-glo luminescent cell viability assay; format: functional
[22] = Antiproliferative activity against human PBMC cells assessed as cell growth inhibition incubated for 72 hrs by celltiter-glo luminescent cell viability assay; format: toxicity, cell-based
[23] = Antiproliferative activity against HEK293 cells assessed as cell growth inhibition incubated for 72 hrs by celltiter-glo luminescent cell viability assay; format: toxicity, cell-based; conditions: human
DOHH-2 [24] = assay: Downregulation of CDK2 expression in human DOHH-2 cells at 0.1 to 0.3 uM incubated for 24 hrs by Western blot analysis; format: functional, cell-based; conditions: dose 0.1-0.3 µM
SU-DHL-6 [25] = assay: Downregulation of CDK2 expression in human SU-DHL-6 cells at 0.1 to 0.3 uM incubated for 24 hrs by Western blot analysis; format: functional, cell-based; conditions: dose 0.1-0.3 µM
SU-DHL-6 [26] = assay: Downregulation of CDK2 expression in human SU-DHL-6 cells at 0.3 uM incubated for 24 hrs by Western blot analysis; format: functional, cell-based
[27] = Downregulation of CDK2 expression in human SU-DHL-6 cells at 0.3 uM preincubated for 1 hr followed by compound washout for 11 hrs and further incubated for 1 hr with compound followed by second washout for 11hrs by Western blot analysis; format: functional; conditions: time 2 hrs
[28] = target: Tyrosine-protein kinase Lyn (Homo sapiens) (UniProt P07948); assay: Inhibition of LYN (unknown origin) relative to control; conditions: concentration not given here
[29] = target: Tyrosine-protein kinase CSK (Homo sapiens) (UniProt P41240); assay: Inhibition of CSK (unknown origin) relative to control; conditions: concentration not given here
[30] = target: Mitogen-activated protein kinase 14 (Homo sapiens) (UniProt Q16539); assay: Inhibition of p38alpha (unknown origin) relative to control; conditions: concentration not given here
[31] = target: T2, Tyrosine-protein kinase Blk; assay: as §1, with “wild type BLK over expressed” for “BTK”, “HEK293” for “human NAMALVA”; format: cell-based
Target sequence in this assay (P51451 2-505 limits assumed): as the sequence (P51451 2-505 limits assumed) above

HEK293 = assay: as §1, with “BLK C319A mutant over expressed” for “BTK”, “HEK293” for “human NAMALVA”; format: cell-based; conditions: Homo sapiens

- IC50 [1]: 56 nM
- IC50 [2]: 110 nM
- inhibition [3]: Tde
Structure (SMILES): C=CC(=O)Nc1cccc(Nc2ncc(NC(=O)c3cc(NC(=O)c4ccc5cnccc5c4)ccc3C)cn2)c1

- Ratio IC50 (Homo sapiens): 34.2
- inhibition [4]: Active
- IC50 [5]: 5.9 nM
- IC50 [1]: 202 nM
- IC50 [6]: 12 nM
- EC50 [7]: > 1000 nM
- EC50 [8]: > 1000 nM
- inhibition [9]: Active
- inhibition [10]: 101%
- GI50 (SU-DHL-6 [11]): 130 nM
- inhibition [12]: 100%
- inhibition [13]: 99%
- inhibition [14]: 97%
- inhibition [15]: 94%
- inhibition [16]: 83%
- inhibition [17]: 19%
- inhibition [18]: 19%
- inhibition [19]: 5%
- GI50 (OCI-Ly7): 20 nM
- GI50 (SU-DHL10): 560 nM
- GI50 (Jurkat): 10900 nM
- GI50 (MOLT-4): 18800 nM
- GI50 (A-375): > 30000 nM
- GI50 (A-431): > 30000 nM
- GI50 (A549): > 30000 nM
- GI50 (HCT-116): 8100 nM
- GI50 (MDA-MB-453): > 30000 nM
Structure (SMILES): Cc1ccc(NC(=O)c2ccc3cnccc3c2)cc1C(=O)Nc1cnc(Nc2cccc(NC3CCN(C(=O)/C=C/CN(C)C)CC3)c2)nc1
- GI50 (DOHH-2 [20]): 16 nM
- GI50 (Pfeiffer): 2180 nM
- GI50 (TMD8): 64 nM
- GI50 [21]: 1340 nM
- GI50 at 72 h [22]: > 30000 nM
- GI50 at 72 h [23]: > 30000 nM
- Activity (DOHH-2 [24]): Active
- Activity (SU-DHL-6 [25]): Active
- Activity (SU-DHL-6 [26]): Active
- Activity [27]: 55%

- IC50 [1]: 694 nM
Structure (SMILES): Cc1ccc(NC(=O)c2cccc(-c3ccc(F)cc3)c2)cc1C(=O)Nc1cnc(Nc2cccc(N)c2)nc1

- IC50 [1]: 319 nM
Structure (SMILES): Cc1ccc(NC(=O)c2ccc3cc4ccccc4cc3c2)cc1C(=O)Nc1cnc(Nc2cccc(N)c2)nc1

- IC50 [1]: 444 nM
Structure (SMILES): Cc1ccc(NC(=O)OCc2ccccc2)cc1C(=O)Nc1cnc(Nc2cccc(N)c2)nc1

- Ratio IC50 (Homo sapiens): 6.6
- IC50 [5]: 8.8 nM
- IC50 [1]: 58 nM
- inhibition [28]: > 80%
- inhibition [29]: > 80%
- inhibition [30]: > 80%
- IC50 [6]: 5.5 nM
Structure (SMILES): C=CC(=O)N1CCC(Nc2cccc(Nc3ncc(NC(=O)c4cc(NC(=O)c5ccc6cnccc6c5)ccc4C)cn3)c2)CC1

- IC50 [1]: 360 nM
Structure (SMILES): Cc1ccc(NC(=O)c2cccc(-c3ccco3)c2)cc1C(=O)Nc1cnc(Nc2cccc(N)c2)nc1

- IC50 [1]: 212 nM
Structure (SMILES): Cc1ccc(NC(=O)c2ccc3cc(O)ccc3c2)cc1C(=O)Nc1cnc(Nc2cccc(N)c2)nc1

- IC50 [1]: 660 nM
Structure (SMILES): Cc1ccc(NC(=O)c2cccc(-c3ccccc3)c2)cc1C(=O)Nc1cnc(Nc2cccc(N)c2)nc1

- IC50 [1]: 388 nM
Structure (SMILES): C=CC(=O)NCCC(=O)Nc1cccc(Nc2ncc(NC(=O)c3cc(NC(=O)c4ccc5cnccc5c4)ccc3C)cn2)c1

- IC50 [1]: 42.1 nM
Structure (SMILES): Cc1ccc(NC(=O)c2cccc(C(F)(F)F)c2)cc1C(=O)Nc1cnc(Nc2cccc(N)c2)nc1

Structure (SMILES): Cc1ccc(NC(=O)c2ccc3cnccc3c2)cc1C(=O)Nc1cnc(Nc2cccc(NC3CCN(C(=O)CF)CC3)c2)nc1
- IC50 [1]: 63.4 nM

- inhibition [31]: Active
- IC50 [5]: 18.8 nM
- IC50 [6]: 15 nM
- inhibition (HEK293): Active
Structure (SMILES): C=CC(=O)Nc1cccc(Nc2ncc(NC(=O)c3cc(NC(=O)c4cccc(C(F)(F)F)c4)ccc3C)cn2)c1

- IC50 [1]: 407 nM
Structure (SMILES): Cc1ccc(NC(=O)c2ccc3cnccc3c2)cc1C(=O)Nc1cnc(Nc2cccc(N)c2)nc1

- IC50 [1]: 410 nM
Structure (SMILES): Cc1ccc(NC(=O)c2ccc3ncccc3c2)cc1C(=O)Nc1cnc(Nc2cccc(N)c2)nc1

- IC50 [1]: 338 nM
Structure (SMILES): Cc1ccc(NC(=O)CC23CC4CC(CC(C4)C2)C3)cc1C(=O)Nc1cnc(Nc2cccc(N)c2)nc1

- IC50 [1]: 227 nM
Structure (SMILES): Cc1ccc(NC(=O)c2cccc(-c3cccnc3)c2)cc1C(=O)Nc1cnc(Nc2cccc(N)c2)nc1

- IC50 [1]: 507 nM
Structure (SMILES): Cc1ccc(NC(=O)c2cccc(-c3ccc(F)nc3)c2)cc1C(=O)Nc1cnc(Nc2cccc(N)c2)nc1

- IC50 [1]: 63.8 nM
Structure (SMILES): COc1ccc2cc(C(=O)Nc3ccc(C)c(C(=O)Nc4cnc(Nc5cccc(N)c5)nc4)c3)ccc2c1

- IC50 [1]: 145 nM
Structure (SMILES): Cc1ccc(NC(=O)c2ccc3cc(Br)ccc3c2)cc1C(=O)Nc1cnc(Nc2cccc(N)c2)nc1

- IC50 [1]: 78.8 nM
Structure (SMILES): Cc1ccc(NC(=O)c2ccc3ccccc3c2)cc1C(=O)Nc1cnc(Nc2cccc(N)c2)nc1

- IC50 [1]: 255 nM
Structure (SMILES): Cc1ccc(NC(=O)c2ccc(-c3ccccc3)cc2)cc1C(=O)Nc1cnc(Nc2cccc(N)c2)nc1
